Experimental data: patent US20250382305A1 (PTC THERAPEUTICS, INC., priority 2022, published 2025)

Key:
[1] = tested on: Total ATXN3 (tATXN3) protein; assay: Endogenous Total ATXN3 (tATXN3) Protein Assay (MSD immunoassay of cell lysates); format: cell-based; settings: average IC50, total ATXN3 protein in cell lysate after 48 h with compound (Table 1)
How it was run: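 Cells in DMEM/10% FBS were plated at 10,000 per well onto 7-point, 3.16-fold compound dilutions in duplicate for 48 h at 37° C, then lysed. Total ATXN3 in lysates was measured by MSD sandwich immunoassay: mouse anti-ATXN3 capture, rabbit anti-ATXN3 detection, SULFO-TAG anti-rabbit. Average IC50 was reported in star bins.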

[2] = tested on: ATXN3 pre-mRNA; assay: RT-qPCR Assay to Quantify Exon 4 Skipping in ATXN3 pre-mRNA in Cells; format: cell-based; settings: percent exon 4 skipping in ATXN3 pre-mRNA, RT-qPCR of cell lysates; average IC50
How it was run: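 Cells plated at 10,000/well onto a 7-point, 3.16-fold DMSO dilution series (duplicates), incubated 24 h at 37 °C, then lysed. Exon 4 skipping measured by one-step RT-qPCR (48 °C RT, 40 cycles); IC50 interpolated from dose-response fit of percent skipping.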

Compound	IC50 [1]	IC50 [2]
N[C@H]1CCC[C@@H]1c1sc2c(NCc3ccco3)cc(Cl)nc2c1Cl [Compound 117, 2-((1S,2S)-2-aminocyclopentyl)-3,5-dichloro-N-(furan-2-ylmethyl)thieno[3,2-b]pyridin-7-amine]	≤ 30 nM	≤ 30 nM
N[C@@H]1CCCO[C@H]1c1sc2c(NCc3ccco3)cc(Cl)nc2c1Br [Compound 118, 2-((2R,3R)-3-aminotetrahydro-2H-pyran-2-yl)-3-bromo-5-chloro-N-(furan-2-ylmethyl)thieno[3,2-b]pyridin-7-amine]	300 to 1000 nM	300 to 1000 nM
N[C@@H]1CCCO[C@H]1c1sc2c(NCc3ccco3)cc(Cl)nc2c1Cl [Compound 119, 2-((2R,3R)-3-aminotetrahydro-2H-pyran-2-yl)-3,5-dichloro-N-(furan-2-ylmethyl)thieno[3,2-b]pyridin-7-amine]	> 1000 nM	> 1000 nM
Cc1c([C@H]2CCC[C@@H]2N)sc2c(NCc3ccco3)cc(Cl)nc12 [Compound 120, 2-((1S,2S)-2-aminocyclopentyl)-5-chloro-N-(furan-2-ylmethyl)-3-methylthieno[3,2-b]pyridin-7-amine]	30 to 300 nM	30 to 300 nM
N[C@H]1CCC[C@]1(F)c1sc2c(NCc3ccco3)cc(Cl)nc2c1Cl [Compound 121, 2-((1R,2S)-2-amino-1-fluorocyclopentyl)-3,5-dichloro-N-(furan-2-ylmethyl)thieno[3,2-b]pyridin-7-amine]	> 1000 nM	> 1000 nM
N[C@H]1CCCCCC[C@@H]1c1sc2c(NCc3cccs3)cc(Cl)nc2c1I [Compound 122, 2-((1S,2S)-2-aminocyclooctyl)-5-chloro-3-iodo-N-(thiophen-2-ylmethyl)thieno[3,2-b]pyridin-7-amine]	> 1000 nM	> 1000 nM
N[C@@H]1CCCCCC[C@H]1c1sc2c(NCc3cccs3)cc(Cl)nc2c1I [Compound 123, 2-((1R,2R)-2-aminocyclooctyl)-5-chloro-3-iodo-N-(thiophen-2-ylmethyl)thieno[3,2-b]pyridin-7-amine]	> 1000 nM	> 1000 nM
Cc1c([C@@]2(F)CCC[C@@H]2N)sc2c(NCc3ccco3)nc(Cl)nc12 [Compound 128, 6-((1R,2S)-2-amino-1-fluorocyclopentyl)-2-chloro-N-(furan-2-ylmethyl)-7-methylthieno[3,2-d]pyrimidin-4-amine]	> 1000 nM	> 1000 nM
N[C@H]1CCCC[C@@H]1c1sc2c(NCc3cccs3)cc(Cl)nc2c1-c1ccccc1 [Compound 129]	300 to 1000 nM	30 to 300 nM
N[C@H]1CCCC[C@@H]1c1sc2c(NCc3cccs3)cc(Cl)nc2c1C1CC1 [Compound 130, 2-((1S,2S)-2-aminocyclohexyl)-5-chloro-3-cyclopropyl-N-(thiophen-2-ylmethyl)thieno[3,2-b]pyridin-7-amine]	30 to 300 nM	30 to 300 nM
N[C@H]1CCC[C@@H]1c1sc2c(NCc3cccs3)cc(Cl)nc2c1-c1ccccc1 [Compound 131, 2-((1S,2S)-2-aminocyclopentyl)-5-chloro-3-phenyl-N-(thiophen-2-ylmethyl)thieno[3,2-b]pyridin-7-amine]	> 1000 nM	> 1000 nM
N[C@@H]1CCCO[C@H]1c1sc2c(NCc3ccccc3)cc(Cl)nc2c1I [Compound 132, 2-((2R,3R)-3-aminotetrahydro-2H-pyran-2-yl)-N-benzyl-5-chloro-3-iodothieno[3,2-b]pyridin-7-amine]	300 to 1000 nM	> 1000 nM
Cc1c([C@H]2OCCC[C@@H]2N)sc2c(NCc3ccco3)cc(Cl)nc12 [Compound 133, 2-((2S,3S)-3-aminotetrahydro-2H-pyran-2-yl)-5-chloro-N-(furan-2-ylmethyl)-3-methylthieno[3,2-b]pyridin-7-amine]	30 to 300 nM	≤ 30 nM
Cc1c([C@@H]2OCCC[C@H]2N)sc2c(NCc3ccco3)cc(Cl)nc12 [Compound 134, ((2R,3R)-3-aminotetrahydro-2H-pyran-2-yl)-5-chloro-N-(furan-2-ylmethyl)-3-methylthieno[3,2-b]pyridin-7-amine]	> 1000 nM	> 1000 nM
N[C@@H]1CCC[C@H]1c1sc2c(NCc3cccs3)cc(Cl)nc2c1-c1ccccc1 [Compound 135, 2-((1R,2R)-2-aminocyclopentyl)-5-chloro-3-phenyl-N-(thiophen-2-ylmethyl)thieno[3,2-b]pyridin-7-amine]	> 1000 nM	> 1000 nM
N[C@H]1CCCO[C@@H]1c1sc2c(NCc3ccccc3)cc(Cl)nc2c1I [Compound 136, 2-((2S,3S)-3-aminotetrahydro-2H-pyran-2-yl)-N-benzyl-5-chloro-3-iodothieno[3,2-b]pyridin-7-amine]	≤ 30 nM	≤ 30 nM
N[C@@H]1CCCC[C@H]1c1sc2c(NCc3cccs3)cc(Cl)nc2c1C1CC1 [Compound 137, 2-((1R,2R)-2-aminocyclohexyl)-5-chloro-3-cyclopropyl-N-(thiophen-2-ylmethyl)thieno[3,2-b]pyridin-7-amine]	> 1000 nM	> 1000 nM

Now from value to compound:

IC50 [1]	IC50 [2]	Compound
30 to 300 nM	300 to 1000 nM	N[C@@H]1CCCC[C@H]1c1sc2c(NCc3cccs3)cc(Cl)nc2c1-c1ccccc1 [Compound 138]
30 to 300 nM	≤ 30 nM	N[C@H]1COCC[C@@H]1c1sc2c(NCc3cccs3)cc(Cl)nc2c1Br [Compound 139, 2-((3R,4S)-3-aminotetrahydro-2H-pyran-4-yl)-3-bromo-5-chloro-N-(thiophen-2-ylmethyl)thieno[3,2-b]pyridin-7-amine]
300 to 1000 nM	300 to 1000 nM	N[C@@H]1COCC[C@H]1c1sc2c(NCc3cccs3)cc(Cl)nc2c1Br [Compound 140, 2-((3S,4R)-3-aminotetrahydro-2H-pyran-4-yl)-3-bromo-5-chloro-N-(thiophen-2-ylmethyl)thieno[3,2-b]pyridin-7-amine]
> 1000 nM	> 1000 nM	N[C@H]1CCCCC[C@@H]1c1sc2c(NCc3cccs3)cc(Cl)nc2c1-c1ccccc1 [Compound 141, 2-((1S,2S)-2-aminocycloheptyl)-5-chloro-3-phenyl-N-(thiophen-2-ylmethyl)thieno[3,2-b]pyridin-7-amine]
> 1000 nM	> 1000 nM	N[C@@H]1CCCCC[C@H]1c1sc2c(NCc3cccs3)cc(Cl)nc2c1-c1ccccc1 [Compound 142, 2-((1R,2R)-2-aminocycloheptyl)-5-chloro-3-phenyl-N-(thiophen-2-ylmethyl)thieno[3,2-b]pyridin-7-amine]
≤ 30 nM	≤ 30 nM	N[C@H]1CCCO[C@@H]1c1sc2c(NCc3ccco3)nc(Cl)nc2c1Br [Compound 143, 6-((2S,3S)-3-aminotetrahydro-2H-pyran-2-yl)-7-bromo-2-chloro-N-(furan-2-ylmethyl)thieno[3,2-d]pyrimidin-4-amine]
> 1000 nM	30 to 300 nM	Cc1c([C@@H]2CCC[C@H]2N)sc2c(NCc3ccco3)cc(Cl)nc12 [Compound 145, 2-((1R,2R)-2-aminocyclopentyl)-5-chloro-N-(furan-2-ylmethyl)-3-methylthieno[3,2-b]pyridin-7-amine]
> 1000 nM	> 1000 nM	N[C@@H]1CCC[C@H]1c1sc2c(NCc3cccs3)cc(Cl)nc2c1I [Compound 154, 2-((1R,2R)-2-aminocyclopentyl)-5-chloro-3-iodo-N-(thiophen-2-ylmethyl)thieno[3,2-b]pyridin-7-amine]
> 1000 nM	300 to 1000 nM	N[C@@H]1CCC[C@H]1c1sc2c(NCc3ccco3)cc(Cl)nc2c1Br [Compound 155, 2-((1R,2R)-2-aminocyclopentyl)-3-bromo-5-chloro-N-(furan-2-ylmethyl)thieno[3,2-b]pyridin-7-amine]
> 1000 nM	> 1000 nM	N[C@@H]1CCCO[C@H]1c1sc2c(NCc3ccccc3)cc(Cl)nc2c1Cl [Compound 156, 2-((2R,3R)-3-aminotetrahydro-2H-pyran-2-yl)-N-benzyl-3,5-dichlorothieno[3,2-b]pyridin-7-amine]
> 1000 nM	> 1000 nM	N[C@@H]1CCCCC[C@H]1c1sc2c(NCc3cccs3)cc(Cl)nc2c1I [Compound 157, 2-((1R,2R)-2-aminocycloheptyl)-5-chloro-3-iodo-N-(thiophen-2-ylmethyl)thieno[3,2-b]pyridin-7-amine]
> 1000 nM	> 1000 nM	CCc1c([C@@H]2CCCCCC[C@H]2N)sc2c(NCc3cccs3)cc(Cl)nc12 [Compound 158, 2-((1R,2R)-2-aminocyclooctyl)-5-chloro-3-ethyl-N-(thiophen-2-ylmethyl)thieno[3,2-b]pyridin-7-amine]
> 1000 nM	> 1000 nM	N[C@H]1CCC[C@@H]1c1sc2c(NCc3ccccc3)cc(Cl)nc2c1Cl [Compound 159, 2-((1S,2S)-2-aminocyclopentyl)-N-benzyl-3,5-dichlorothieno[3,2-b]pyridin-7-amine]
> 1000 nM	> 1000 nM	Cc1c([C@@H]2CCC[C@H]2N)sc2c(NCc3ccccc3)cc(Cl)nc12 [Compound 160, 2-((1R,2R)-2-aminocyclopentyl)-N-benzyl-5-chloro-3-methylthieno[3,2-b]pyridin-7-amine]
> 1000 nM	> 1000 nM	N[C@@H]1CCC[C@H]1c1sc2c(NCc3ccccc3)cc(Cl)nc2c1Br [Compound 161, 2-((1R,2R)-2-aminocyclopentyl)-N-benzyl-3-bromo-5-chlorothieno[3,2-b]pyridin-7-amine]
≤ 30 nM	≤ 30 nM	N[C@H]1CCC[C@@H]1c1sc2c(NCc3cccs3)cc(Cl)nc2c1I [Compound 162, 2-((1S,2S)-2-aminocyclopentyl)-5-chloro-3-iodo-N-(thiophen-2-ylmethyl)thieno[3,2-b]pyridin-7-amine]
